{"source": "paper PMC11822212", "about": "“High-throughput screening identifies Aurora kinase B as a critical therapeutic target for Merkel cell carcinoma” (Nature Communications, 2025)", "key": {"UISO cells (VN-MCC)": {"system": "UISO cells (VN-MCC)", "test": "qHTS cell viability (CellTiter-Glo, 72 h; primary and follow-up small molecule screen)", "assay_type": "cell-based, human"}, "[1]": {"system": "control cell lines (HACAT, HEK293T, CRL-7250, NIH-3T3)", "test": "qHTS cell viability, control cell lines as a group (mean AUC, Control.avg)", "assay_type": "cell-based"}, "HACAT cells": {"system": "HACAT cells", "test": "qHTS cell viability (CellTiter-Glo, 72 h; primary screen), control cell line", "assay_type": "cell-based, human"}, "MKL-2 cells (VP-MCC)": {"system": "MKL-2 cells (VP-MCC)", "test": "qHTS cell viability (CellTiter-Glo, 72 h; primary and follow-up small molecule screen)", "assay_type": "cell-based, human"}, "[2]": {"system": "six MCC cell lines and four control cell lines", "test": "qHTS cell viability, all 10 cell lines screened", "assay_type": "cell-based"}, "[3]": {"system": "VN-MCC cell lines (MCC13, MCC26, UISO)", "test": "qHTS cell viability, VN-MCC cell lines as a group (mean AUC, VN.MCC.avg)", "assay_type": "cell-based, human"}, "MCC26 cells (VN-MCC)": {"system": "MCC26 cells (VN-MCC)", "test": "qHTS cell viability (CellTiter-Glo, 72 h; primary and follow-up small molecule screen)", "assay_type": "cell-based, human"}, "CRL-7250 cells": {"system": "CRL-7250 cells", "test": "qHTS cell viability (CellTiter-Glo, 72 h; primary screen), control cell line", "assay_type": "cell-based"}, "[4]": {"system": "MCC cell lines (WAGA, MKL-1, MKL-2, MCC13, MCC26, UISO)", "test": "qHTS cell viability, all six MCC cell lines as a group (mean AUC, MCC.avg)", "assay_type": "cell-based, human"}, "[5]": {"system": "VP-MCC cell lines (WAGA, MKL-1, MKL-2)", "test": "qHTS cell viability, VP-MCC cell lines as a group (mean AUC, VP.MCC.avg)", "assay_type": "cell-based, human"}, "WAGA cells (VP-MCC)": {"system": "WAGA cells (VP-MCC)", "test": "qHTS cell viability (CellTiter-Glo, 72 h; primary and follow-up small molecule screen)", "assay_type": "cell-based, human"}, "HEK293T cells": {"system": "HEK293T cells", "test": "qHTS cell viability (CellTiter-Glo, 72 h; primary screen), control cell line", "assay_type": "cell-based, human"}, "NIH-3T3 cells": {"system": "NIH-3T3 cells", "test": "qHTS cell viability (CellTiter-Glo, 72 h; primary screen), control cell line", "assay_type": "cell-based, mouse"}, "MCC13 cells (VN-MCC)": {"system": "MCC13 cells (VN-MCC)", "test": "qHTS cell viability (CellTiter-Glo, 72 h; primary and follow-up small molecule screen)", "assay_type": "cell-based, human"}, "MKL-1 cells (VP-MCC)": {"system": "MKL-1 cells (VP-MCC)", "test": "qHTS cell viability (CellTiter-Glo, 72 h; primary and follow-up small molecule screen)", "assay_type": "cell-based, human"}, "[6]": {"details": "MIPE library, 11-point DRC, sheet S2E"}, "[7]": {"details": "MIPE library, mean AUC of control cell lines, sheet S2E"}, "[8]": {"details": "MIPE library, 11-point DRC, control cell line, sheet S2E"}, "[9]": {"details": "MIPE library, Control AUC minus MCC AUC (therapeutic window), sheet S2E"}, "[10]": {"details": "MIPE library, Control AUC minus VN-MCC AUC (therapeutic window), sheet S2E"}, "[11]": {"details": "MIPE library, mean AUC of VN-MCC cell lines, sheet S2E"}, "[12]": {"details": "MIPE library, mean AUC of six MCC cell lines, sheet S2E"}, "[13]": {"details": "MIPE library, Control AUC minus VP-MCC AUC (therapeutic window), sheet S2E"}, "[14]": {"details": "MIPE library, mean AUC of VP-MCC cell lines, sheet S2E"}}, "note": "Like-named read-outs stand apart in the source and are kept apart here.", "data": [{"smiles": "CCNC(=O)Nc1ccc2ncc(Nc3ccc(C)cc3)nc2n1", "note": "[D-106669]", "values": [{"measurement": "UISO_AUC", "setting": "UISO cells (VN-MCC); [6]", "value": 355.75}, {"measurement": "Control_Avg_AUC", "setting": "[1]; [7]", "value": 470.814}, {"measurement": "HACAT_AUC", "setting": "HACAT cells; [8]", "value": 474.569}, {"measurement": "MKL2_AUC", "setting": "MKL-2 cells (VP-MCC); [6]", "value": 431.031}, {"measurement": "Control-MCC", "setting": "[2]; [9]", "value": 51.0396}, {"measurement": "Control-VN-MCC", "setting": "[3]; [10]", "value": 41.7531}, {"measurement": "VN-MCC_Avg_AUC", "setting": "[3]; [11]", "value": 429.061}, {"measurement": "MCC26_AUC", "setting": "MCC26 cells (VN-MCC); [6]", "value": 446.547}, {"measurement": "CRL7250_AUC", "setting": "CRL-7250 cells; [8]", "value": 461.458}, {"measurement": "MCC_Avg_AUC", "setting": "[4]; [12]", "value": 419.775}, {"measurement": "Control-VP-MCC", "setting": "[5]; [13]", "value": 60.3261}, {"measurement": "VP-MCC_Avg_AUC", "setting": "[5]; [14]", "value": 410.488}, {"measurement": "WAGA_AUC", "setting": "WAGA cells (VP-MCC); [6]", "value": 400.326}, {"measurement": "HEK293T_AUC", "setting": "HEK293T cells; [8]", "value": 479.506}, {"measurement": "NIH3T3_AUC", "setting": "NIH-3T3 cells; [8]", "value": 467.724}, {"measurement": "MCC13_AUC", "setting": "MCC13 cells (VN-MCC); [6]", "value": 484.886}, {"measurement": "MKL1_AUC", "setting": "MKL-1 cells (VP-MCC); [6]", "value": 400.108}]}, {"smiles": "N[C@@H](Cc1ccc(N(CCCl)CCCl)cc1)C(=O)O", "note": "[Melphalan]", "values": [{"measurement": "UISO_AUC", "setting": "UISO cells (VN-MCC)", "value": 405.245}, {"measurement": "Control_Avg_AUC", "setting": "[1]", "value": 455.942}, {"measurement": "HACAT_AUC", "setting": "HACAT cells", "value": 448.936}, {"measurement": "MKL2_AUC", "setting": "MKL-2 cells (VP-MCC)", "value": 377.097}, {"measurement": "Control-MCC", "setting": "[2]", "value": 36.0029}, {"measurement": "Control-VN-MCC", "setting": "[3]", "value": 9.639}, {"measurement": "VN-MCC_Avg_AUC", "setting": "[3]", "value": 446.303}, {"measurement": "MCC26_AUC", "setting": "MCC26 cells (VN-MCC)", "value": 465.715}, {"measurement": "CRL7250_AUC", "setting": "CRL-7250 cells", "value": 448.797}, {"measurement": "MCC_Avg_AUC", "setting": "[4]", "value": 419.939}, {"measurement": "Control-VP-MCC", "setting": "[5]", "value": 62.3672}, {"measurement": "VP-MCC_Avg_AUC", "setting": "[5]", "value": 393.574}, {"measurement": "WAGA_AUC", "setting": "WAGA cells (VP-MCC)", "value": 417.577}, {"measurement": "HEK293T_AUC", "setting": "HEK293T cells", "value": 460.279}, {"measurement": "NIH3T3_AUC", "setting": "NIH-3T3 cells", "value": 465.754}, {"measurement": "MCC13_AUC", "setting": "MCC13 cells (VN-MCC)", "value": 467.949}, {"measurement": "MKL1_AUC", "setting": "MKL-1 cells (VP-MCC)", "value": 386.049}]}, {"smiles": "O=c1cc(-c2ccc(O)cc2)oc2cc(O)cc(O)c12", "note": "[Apigenin]", "values": [{"measurement": "UISO_AUC", "setting": "UISO cells (VN-MCC); [6]", "value": 485.478}, {"measurement": "Area under the dose-response curve (AUC) UISO Replicate 1", "setting": "UISO cells (VN-MCC); follow-up screen, UISO, replicate 1", "value": 472.2}, {"measurement": "Area under the dose-response curve (AUC) UISO Replicate 2", "setting": "UISO cells (VN-MCC); follow-up screen, UISO, replicate 2", "value": 489.3}, {"measurement": "Area under the dose-response curve (AUC) UISO Replicate 3", "setting": "UISO cells (VN-MCC); follow-up screen, UISO, replicate 3", "value": 503.1}, {"measurement": "Control_Avg_AUC", "setting": "[1]; [7]", "value": 460.174}, {"measurement": "HACAT_AUC", "setting": "HACAT cells; [8]", "value": 470.945}, {"measurement": "MKL2_AUC", "setting": "MKL-2 cells (VP-MCC); [6]", "value": 357.96}, {"measurement": "Area under the dose-response curve (AUC) MKL-2 Replicate 1", "setting": "MKL-2 cells (VP-MCC); follow-up screen, MKL-2, replicate 1", "value": 530.0}, {"measurement": "Area under the dose-response curve (AUC) MKL-2 Replicate 2", "setting": "MKL-2 cells (VP-MCC); follow-up screen, MKL-2, replicate 2", "value": 507.8}, {"measurement": "Area under the dose-response curve (AUC) MKL-2 Replicate 3", "setting": "MKL-2 cells (VP-MCC); follow-up screen, MKL-2, replicate 3", "value": 497.7}, {"measurement": "Control-MCC", "setting": "[2]; [9]", "value": 22.9804}, {"measurement": "Control-VN-MCC", "setting": "[3]; [10]", "value": -46.0631}, {"measurement": "VN-MCC_Avg_AUC", "setting": "[3]; [11]", "value": 506.237}, {"measurement": "MCC26_AUC", "setting": "MCC26 cells (VN-MCC); [6]", "value": 531.61}, {"measurement": "Area under the dose-response curve (AUC) MCC26 Replicate 1", "setting": "MCC26 cells (VN-MCC); follow-up screen, MCC26, replicate 1", "value": 480.1}, {"measurement": "Area under the dose-response curve (AUC) MCC26 Replicate 2", "setting": "MCC26 cells (VN-MCC); follow-up screen, MCC26, replicate 2", "value": 461.0}, {"measurement": "Area under the dose-response curve (AUC) MCC26 Replicate 3", "setting": "MCC26 cells (VN-MCC); follow-up screen, MCC26, replicate 3", "value": 496.4}, {"measurement": "CRL7250_AUC", "setting": "CRL-7250 cells; [8]", "value": 438.96}, {"measurement": "MCC_Avg_AUC", "setting": "[4]; [12]", "value": 437.193}, {"measurement": "Control-VP-MCC", "setting": "[5]; [13]", "value": 92.024}, {"measurement": "VP-MCC_Avg_AUC", "setting": "[5]; [14]", "value": 368.15}, {"measurement": "WAGA_AUC", "setting": "WAGA cells (VP-MCC); [6]", "value": 368.999}, {"measurement": "Area under the dose-response curve (AUC) WAGA Replicate 1", "setting": "WAGA cells (VP-MCC); follow-up screen, WAGA, replicate 1", "value": 549.1}, {"measurement": "Area under the dose-response curve (AUC) WAGA Replicate 2", "setting": "WAGA cells (VP-MCC); follow-up screen, WAGA, replicate 2", "value": 497.7}, {"measurement": "Area under the dose-response curve (AUC) WAGA Replicate 3", "setting": "WAGA cells (VP-MCC); follow-up screen, WAGA, replicate 3", "value": 481.5}, {"measurement": "HEK293T_AUC", "setting": "HEK293T cells; [8]", "value": 459.794}, {"measurement": "NIH3T3_AUC", "setting": "NIH-3T3 cells; [8]", "value": 470.997}, {"measurement": "MCC13_AUC", "setting": "MCC13 cells (VN-MCC); [6]", "value": 501.623}, {"measurement": "Area under the dose-response curve (AUC) MCC13 Replicate 1", "setting": "MCC13 cells (VN-MCC); follow-up screen, MCC13, replicate 1", "value": 539.3}, {"measurement": "Area under the dose-response curve (AUC) MCC13 Replicate 2", "setting": "MCC13 cells (VN-MCC); follow-up screen, MCC13, replicate 2", "value": 539.6}, {"measurement": "Area under the dose-response curve (AUC) MCC13 Replicate 3", "setting": "MCC13 cells (VN-MCC); follow-up screen, MCC13, replicate 3", "value": 514.9}, {"measurement": "MKL1_AUC", "setting": "MKL-1 cells (VP-MCC); [6]", "value": 377.491}, {"measurement": "Area under the dose-response curve (AUC) MKL-1 Replicate 1", "setting": "MKL-1 cells (VP-MCC); follow-up screen, MKL-1, replicate 1", "value": 510.1}, {"measurement": "Area under the dose-response curve (AUC) MKL-1 Replicate 2", "setting": "MKL-1 cells (VP-MCC); follow-up screen, MKL-1, replicate 2", "value": 521.0}, {"measurement": "Area under the dose-response curve (AUC) MKL-1 Replicate 3", "setting": "MKL-1 cells (VP-MCC); follow-up screen, MKL-1, replicate 3", "value": 502.5}]}]}
